Species: Rattus norvegicus
Assay: DrugMatrix - Regimen: Daily Repeat
Type: toxicity, organism-based, Sprague-Dawley
Parameters: regimen Daily Repeat, gender Male, age 6-8 weeks
Conditions: in vivo, po, route oral GAVAGE, vehicle .5 % CMC; for ABSOLUTE BASOPHIL / ABSOLUTE EOSINOPHIL / ABSOLUTE LYMPHOCYTE / ABSOLUTE MONOCYTE / ABSOLUTE SEGMENTED NEUTROPHIL / BASOPHIL / EOSINOPHIL / ERYTHROCYTE COUNT / HEMATOCRIT / HEMOGLOBIN / LEUKOCYTE COUNT / LYMPHOCYTE / MEAN CORPUSCULAR HEMOGLOBIN / MEAN CORPUSCULAR HEMOGLOBIN CONCENTRATION / MEAN CORPUSCULAR VOLUME / MONOCYTE / NEUTROPHIL / NUCLEATED RED BLOOD CELLS / PLATELET COUNT: tissue Blood; for ALANINE AMINOTRANSFERASE / ALBUMIN / ALKALINE PHOSPHATASE / ASPARTATE AMINOTRANSFERASE / BLOOD UREA NITROGEN / CARBON DIOXIDE / CHLORIDE / CHOLESTEROL / CREATINE PHOSPHOKINASE / CREATININE / GLUCOSE / LACTATE DEHYDROGENASE / LIPASE / PHOSPHORUS / POTASSIUM / SODIUM / TOTAL BILIRUBIN / TOTAL PROTEIN / URIC ACID: tissue Plasma
[1] = 88 mg/kg, 72 h, dose level Low, time 3 day
[2] = 88 mg/kg, 120 h, dose level Low, time 5 day
[3] = 750 mg/kg, 72 h, dose level High, time 3 day
[4] = 750 mg/kg, 120 h, dose level High, time 5 day

CCC1(c2ccccc2)C(=O)NCNC1=O [PRIMIDONE]
ABSOLUTE BASOPHIL [1]: 0 CELLS/uL
ABSOLUTE EOSINOPHIL [1]: 207.67 CELLS/uL
ABSOLUTE LYMPHOCYTE [1]: 14556.33 CELLS/uL
ABSOLUTE MONOCYTE [1]: 206 CELLS/uL
ABSOLUTE SEGMENTED NEUTROPHIL [1]: 1063.33 CELLS/uL
BASOPHIL [1]: 0%
EOSINOPHIL [1]: 1.33%
ERYTHROCYTE COUNT [1]: 5.49 x10E6/uL
HEMATOCRIT [1]: 34.53%
HEMOGLOBIN [1]: 13.03 G/DL
LEUKOCYTE COUNT [1]: 16.03 x10E3/uL
LYMPHOCYTE [1]: 90.67%
MEAN CORPUSCULAR HEMOGLOBIN [1]: 23.87 pg
MEAN CORPUSCULAR HEMOGLOBIN CONCENTRATION [1]: 37.8 G/DL
MEAN CORPUSCULAR VOLUME [1]: 63.07 fL
MONOCYTE [1]: 1.33%
NEUTROPHIL [1]: 6.67%
NUCLEATED RED BLOOD CELLS [1]: 0 /100WBC
PLATELET COUNT [1]: 1338 x10E3/uL
ALANINE AMINOTRANSFERASE [1]: 44.67 u/L
ALBUMIN [1]: 4.17 G/DL
ALKALINE PHOSPHATASE [1]: 329.33 u/L
ASPARTATE AMINOTRANSFERASE [1]: 77.33 u/L
BLOOD UREA NITROGEN [1]: 15 mg/dL
CARBON DIOXIDE [1]: 25.33 mmol/L
CHLORIDE [1]: 105.33 MEQ/L
CHOLESTEROL [1]: 72 mg/dL
CREATINE PHOSPHOKINASE [1]: 356 u/L
CREATININE [1]: 0.16 mg/dL
GLUCOSE [1]: 157.67 mg/dL
LACTATE DEHYDROGENASE [1]: 80 u/L
LIPASE [1]: 9 u/L
PHOSPHORUS [1]: 13.8 mg/dL
POTASSIUM [1]: 6.58 MEQ/L
SODIUM [1]: 144.83 MEQ/L
TOTAL BILIRUBIN [1]: 0.2 mg/dL
TOTAL PROTEIN [1]: 5.83 G/DL
URIC ACID [1]: 1.93 mg/dL
ABSOLUTE BASOPHIL [2]: 0 CELLS/uL
ABSOLUTE EOSINOPHIL [2]: 87 CELLS/uL
ABSOLUTE LYMPHOCYTE [2]: 14869 CELLS/uL
ABSOLUTE MONOCYTE [2]: 252 CELLS/uL
ABSOLUTE SEGMENTED NEUTROPHIL [2]: 1292 CELLS/uL
BASOPHIL [2]: 0%
EOSINOPHIL [2]: 0.33%
ERYTHROCYTE COUNT [2]: 5.5 x10E6/uL
HEMATOCRIT [2]: 34.07%
HEMOGLOBIN [2]: 13.03 G/DL
LEUKOCYTE COUNT [2]: 16.5 x10E3/uL
LYMPHOCYTE [2]: 91.33%
MEAN CORPUSCULAR HEMOGLOBIN [2]: 23.67 pg
MEAN CORPUSCULAR HEMOGLOBIN CONCENTRATION [2]: 38.3 G/DL
MEAN CORPUSCULAR VOLUME [2]: 61.9 fL
MONOCYTE [2]: 1.33%
NEUTROPHIL [2]: 7%
NUCLEATED RED BLOOD CELLS [2]: 0 /100WBC
PLATELET COUNT [2]: 1298.67 x10E3/uL
ALANINE AMINOTRANSFERASE [2]: 49.67 u/L
ALBUMIN [2]: 3.93 G/DL
ALKALINE PHOSPHATASE [2]: 300.67 u/L
ASPARTATE AMINOTRANSFERASE [2]: 79.67 u/L
BLOOD UREA NITROGEN [2]: 16.67 mg/dL
CARBON DIOXIDE [2]: 27.67 mmol/L
CHLORIDE [2]: 106.67 MEQ/L
CHOLESTEROL [2]: 63.67 mg/dL
CREATINE PHOSPHOKINASE [2]: 421.67 u/L
CREATININE [2]: 0.21 mg/dL
GLUCOSE [2]: 162 mg/dL
LACTATE DEHYDROGENASE [2]: 161 u/L
LIPASE [2]: 8.67 u/L
PHOSPHORUS [2]: 13.87 mg/dL
POTASSIUM [2]: 6.54 MEQ/L
SODIUM [2]: 145.5 MEQ/L
TOTAL BILIRUBIN [2]: 0.2 mg/dL
TOTAL PROTEIN [2]: 6.03 G/DL
URIC ACID [2]: 2.03 mg/dL
ABSOLUTE BASOPHIL [3]: 0 CELLS/uL
ABSOLUTE EOSINOPHIL [3]: 107 CELLS/uL
ABSOLUTE LYMPHOCYTE [3]: 6934.67 CELLS/uL
ABSOLUTE MONOCYTE [3]: 246.33 CELLS/uL
ABSOLUTE SEGMENTED NEUTROPHIL [3]: 1312 CELLS/uL
BASOPHIL [3]: 0%
EOSINOPHIL [3]: 1%
ERYTHROCYTE COUNT [3]: 6.1 x10E6/uL
HEMATOCRIT [3]: 37.33%
HEMOGLOBIN [3]: 14.33 G/DL
LEUKOCYTE COUNT [3]: 8.6 x10E3/uL
LYMPHOCYTE [3]: 79.33%
MEAN CORPUSCULAR HEMOGLOBIN [3]: 23.6 pg
MEAN CORPUSCULAR HEMOGLOBIN CONCENTRATION [3]: 38.3 G/DL
MEAN CORPUSCULAR VOLUME [3]: 61.67 fL
MONOCYTE [3]: 3%
NEUTROPHIL [3]: 16.67%
NUCLEATED RED BLOOD CELLS [3]: 0.33 /100WBC
PLATELET COUNT [3]: 1338.67 x10E3/uL
ALANINE AMINOTRANSFERASE [3]: 48.5 u/L
ALBUMIN [3]: 4.73 G/DL
ALKALINE PHOSPHATASE [3]: 307 u/L
ASPARTATE AMINOTRANSFERASE [3]: 85 u/L
BLOOD UREA NITROGEN [3]: 15.5 mg/dL
CARBON DIOXIDE [3]: 26.33 mmol/L
CHLORIDE [3]: 107.5 MEQ/L
CHOLESTEROL [3]: 66.67 mg/dL
CREATINE PHOSPHOKINASE [3]: 138 u/L
CREATININE [3]: 0.24 mg/dL
GLUCOSE [3]: 144.33 mg/dL
LACTATE DEHYDROGENASE [3]: 137.33 u/L
LIPASE [3]: 8.5 u/L
PHOSPHORUS [3]: 10.5 mg/dL
POTASSIUM [3]: 5.94 MEQ/L
SODIUM [3]: 150.9 MEQ/L
TOTAL BILIRUBIN [3]: 0.3 mg/dL
TOTAL PROTEIN [3]: 6.2 G/DL
URIC ACID [3]: 1 mg/dL
ABSOLUTE BASOPHIL [4]: 0 CELLS/uL
ABSOLUTE EOSINOPHIL [4]: 136.67 CELLS/uL
ABSOLUTE LYMPHOCYTE [4]: 11870 CELLS/uL
ABSOLUTE MONOCYTE [4]: 38.33 CELLS/uL
ABSOLUTE SEGMENTED NEUTROPHIL [4]: 755 CELLS/uL
BASOPHIL [4]: 0%
EOSINOPHIL [4]: 1%
ERYTHROCYTE COUNT [4]: 5.98 x10E6/uL
HEMATOCRIT [4]: 37.3%
HEMOGLOBIN [4]: 13.87 G/DL
LEUKOCYTE COUNT [4]: 12.8 x10E3/uL
LYMPHOCYTE [4]: 92.67%
MEAN CORPUSCULAR HEMOGLOBIN [4]: 23.17 pg
MEAN CORPUSCULAR HEMOGLOBIN CONCENTRATION [4]: 37.17 G/DL
MEAN CORPUSCULAR VOLUME [4]: 62.37 fL
MONOCYTE [4]: 0.33%
NEUTROPHIL [4]: 6%
NUCLEATED RED BLOOD CELLS [4]: 0 /100WBC
PLATELET COUNT [4]: 1320.33 x10E3/uL
ALANINE AMINOTRANSFERASE [4]: 59.67 u/L
ALBUMIN [4]: 4.13 G/DL
ALKALINE PHOSPHATASE [4]: 421 u/L
ASPARTATE AMINOTRANSFERASE [4]: 98.33 u/L
BLOOD UREA NITROGEN [4]: 15 mg/dL
CARBON DIOXIDE [4]: 25.33 mmol/L
CHLORIDE [4]: 105.33 MEQ/L
CHOLESTEROL [4]: 68.33 mg/dL
CREATINE PHOSPHOKINASE [4]: 186.67 u/L
CREATININE [4]: 0.18 mg/dL
GLUCOSE [4]: 159.33 mg/dL
LACTATE DEHYDROGENASE [4]: 96 u/L
LIPASE [4]: 9 u/L
PHOSPHORUS [4]: 13.2 mg/dL
POTASSIUM [4]: 6.32 MEQ/L
SODIUM [4]: 146.03 MEQ/L
TOTAL BILIRUBIN [4]: 0.2 mg/dL
TOTAL PROTEIN [4]: 6.17 G/DL
URIC ACID [4]: 2.07 mg/dL

Source: ChEMBL document CHEMBL3885881, “DrugMatrix”
